Assay results from the supplement of paper PMC10331698.
± gives the standard deviation of the averaged measurements.

Tests used:
Assay in all cases: level (log10 ratio to DMSO vehicle control); higher = higher biomarker level / cell amount than vehicle control
Settings in all cases: in DMSO
[1] = compound: NC(=O)C(F)(F)C(F)(F)C(F)(F)C(F)F
Protocol: (§1)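 BioMAP Diversity Plus panel of 12 human primary cell co-culture systems (3C, 4H, LPS, SAg, BT, BF4T, BE3C, CASM3C, HDF3CGF, KF3CT, MyoF, Mphg). Compounds were added 1 h before stimulation and left for 24 h (MyoF 48 h; BT 72 h for soluble read-outs or 6 d for IgG). Biomarkers were read by ELISA, cytotoxicity by SRB, PBMC viability and proliferation by Alamar Blue. Each well value was divided by the mean of 8 DMSO control wells on the same plate and log10 transformed; duplicate blinded samples were tested at 4 concentrations.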

[2] = compound: FC(F)(F)C(F)(F)C(F)(F)CI [Heptafluorobutyl iodide]
Protocol: as §1

[3] = compound: FC(F)(F)C(F)(F)CNCC(F)(F)C(F)(F)F [Bis(1H,1H-perfluoropropyl)amine]
Protocol: as §1

[4] = compound: NC(=O)C(F)(F)C(F)(F)C(F)(F)C(F)(F)F [Nonafluoropentanamide]
Protocol: as §1

[5] = compound: O=C(O)C=CC(F)(C(F)(F)F)C(F)(F)F [3-(Perfluoroisopropyl)-2-propenoic acid]
Protocol: as §1

[6] = compound: O=S(=O)(O)C(F)(F)C(F)(F)C(F)(F)C(F)(F)C(F)(F)C(F)(F)C(F)(F)C(F)(F)C(F)(F)C(F)(F)F [Sodium perfluorodecanesulfonate]
Protocol: as §1

| Test System | level (log10) ([1]; 6700 nM) | level (log10) ([1]; 20000 nM) | level (log10) ([1]; 60000 nM) | level (log10) ([2]; 6700 nM) | level (log10) ([2]; 20000 nM) | level (log10) ([2]; 60000 nM) | level (log10) ([3]; 6700 nM) | level (log10) ([3]; 20000 nM) | level (log10) ([3]; 60000 nM) | level (log10) ([4]; 6700 nM) | level (log10) ([4]; 20000 nM) | level (log10) ([4]; 60000 nM) | level (log10) ([5]; 6700 nM) | level (log10) ([5]; 20000 nM) | level (log10) ([5]; 60000 nM) | level (log10) ([6]; 1500 nM) | level (log10) ([6]; 4400 nM) | level (log10) ([6]; 13000 nM) | level (log10) ([6]; 40000 nM) |
| --- | --- | --- | --- | --- | --- | --- | --- | --- | --- | --- | --- | --- | --- | --- | --- | --- | --- | --- | --- |
| BF4T:CD90 | -0.002 ± 0.0085 | -0.0125 ± 0.0092 | 0.001 ± 0.0028 | 0.003 ± 0.018 | -0.009 ± 0.0028 | 0.001 ± 0.017 | -0.01 ± 0.0085 | -0.004 ± 0.0071 | 0.011 ± 0.018 | -0.0145 ± 0.015 | -0.0075 ± 0.0021 | -0.013 ± 0.0042 | -0.0005 ± 0.013 | -0.0105 ± 0.0035 | 0.018 ± 0.0028 | -0.0085 ± 0.012 | -0.0055 ± 0.005 | -0.0065 ± 0.0035 | 0.002 ± 0.0057 |
| BT:sIL-2 | 0.002 ± 0.058 | -0.056 ± 0.051 | 0.04 ± 0.0099 | 0.001 ± 0.071 | 0.0735 ± 0.028 | -0.027 ± 0.058 | -0.011 ± 0.064 | 0.012 ± 0.064 | 0.0645 ± 0.1 | 0.0345 ± 0.053 | 0.002 ± 0.033 | -0.0105 ± 0.011 | 0.029 ± 0.058 | -0.049 ± 0.12 | 0.001 ± 0.0085 | 0.0125 ± 0.09 | 0.014 ± 0.051 | 0.0265 ± 0.1 | 0.12 ± 0.064 |
| LPS:sPGE2 | -0.0045 ± 0.028 | -0.0005 ± 0.005 | 0.0315 ± 0.036 | -0.0175 ± 0.026 | 0.0095 ± 0.064 | 0.0105 ± 0.064 | 0.038 ± 0.033 | 0.005 ± 0.0014 | 0.0485 ± 0.067 | -0.0015 ± 0.013 | -0.0115 ± 0.016 | -0.022 ± 0.0099 | 0.01 ± 0.065 | 0.046 ± 0.023 | 0.0575 ± 0.025 | 0.035 ± 0.02 | 0.006 ± 0.041 | -0.009 ± 0.04 | -0.123 ± 0.023 |
| BT:sIL-6 | 0.0315 ± 0.074 | -0.0335 ± 0.023 | -0.0795 ± 0.11 | 0.0525 ± 0.0092 | 0.0485 ± 0.0035 | 0.003 ± 0.014 | 0.0285 ± 0.0064 | 0.02 ± 0.013 | 0.0245 ± 0.011 | -0.0015 ± 0.039 | -0.0035 ± 0.036 | -0.0665 ± 0.03 | 0.032 ± 0.089 | -0.0455 ± 0.056 | -0.025 ± 0.03 | 0 ± 0.031 | -0.0045 ± 0.026 | -0.036 ± 0.1 | -0.0235 ± 0.05 |
| BF4T:MMP-3 | 0.01 ± 0.033 | -0.005 ± 0.047 | 0.0075 ± 0.047 | 0.0245 ± 0.036 | -0.02 ± 0.0014 | 0.026 ± 0.017 | -0.013 ± 0.0028 | -0.0125 ± 0.0092 | 0.001 ± 0.025 | -0.03 ± 0.0099 | -0.0415 ± 0.012 | -0.0105 ± 0.015 | -0.003 ± 0.014 | -0.0035 ± 0.015 | 0.0205 ± 0.033 | -0.0175 ± 0.032 | -0.002 ± 0.0099 | 0.0175 ± 0.0078 | 0.054 ± 0.0042 |
| BF4T:CD54/ICAM-1 | -0.0105 ± 0.015 | -0.0095 ± 0.022 | -0.0045 ± 0.0021 | -0.012 ± 0.011 | -0.008 ± 0.016 | -0.003 ± 0.031 | -0.0035 ± 0.0021 | -0.013 ± 0.0014 | 0.001 ± 0.04 | -0.003 ± 0.0028 | -0.0005 ± 0.00071 | 0.007 ± 0.0099 | 0.007 ± 0.0042 | -0.0005 ± 0.025 | 0.011 ± 0.0028 | -0.019 ± 0.0071 | -0.031 ± 0.016 | -0.014 ± 0.014 | -0.0105 ± 0.025 |
| BE3C:EGFR | 0.0055 ± 0.019 | 0.0065 ± 0.032 | -0.008 ± 0.0099 | -0.015 ± 0.017 | -0.019 ± 0.0071 | 0.0015 ± 0.005 | -0.011 ± 0.014 | -0.008 ± 0.0057 | 0.0065 ± 0.021 | 0.0025 ± 0.011 | -0.0425 ± 0.029 | -0.0175 ± 0.011 | 0.0005 ± 0.016 | 0.0085 ± 0.00071 | 0.004 ± 0.0014 | 0.0185 ± 0.0035 | 0.0015 ± 0.0064 | -0.022 ± 0.014 | -0.032 ± 0.027 |
| BF4T:MMP-1 | 0.003 ± 0.0085 | -0.003 ± 0.0085 | 0.0075 ± 0.0035 | -0.005 ± 0.013 | -0.0055 ± 0.0035 | 0.0055 ± 0.012 | -0.009 ± 0.0071 | -0.0005 ± 0.00071 | 0.01 ± 0.011 | -0.009 ± 0.0042 | -0.0005 ± 0.013 | -0.01 ± 0.0099 | -0.0055 ± 0.012 | -0.0055 ± 0.0035 | 0.017 ± 0.03 | 0.009 ± 0.013 | -0.0095 ± 0.0078 | 0.001 ± 0.0014 | 0.0245 ± 0.005 |
| BF4T:SRB | -0.0075 ± 0.00071 | -0.0125 ± 0.011 | -0.0025 ± 0.0078 | 0.001 ± 0.0028 | -0.002 ± 0.0071 | 0.0015 ± 0.0064 | -0.004 ± 0.0071 | -0.0065 ± 0.0064 | 0.0005 ± 0.0078 | -0.018 ± 0.0042 | -0.017 ± 0.016 | -0.019 ± 0.0028 | -0.008 ± 0.011 | -0.008 ± 0.0099 | 0.006 ± 0.018 | 0.004 ± 0.0071 | -0.0055 ± 0.005 | 0 ± 0.0057 | 0.006 ± 0.016 |
| BE3C:CD87/uPAR | -0.02 ± 0.011 | -0.0205 ± 0.0035 | -0.0145 ± 0.015 | 0.0115 ± 0.033 | -0.0435 ± 0.016 | -0.001 ± 0.0057 | -0.0335 ± 0.049 | -0.0475 ± 0.06 | -0.012 ± 0.018 | 0.012 | 0.0185 ± 0.015 | 0.0115 ± 0.018 | 0.005 ± 0.0085 | 0.002 ± 0.045 | 0.052 ± 0.038 | 0.029 ± 0.011 | 0.066 ± 0.02 | 0.005 ± 0.0014 | -0.179 ± 0.011 |
| SAg:PBMC Cytotoxicity | 0.018 ± 0.016 | -0.008 ± 0.011 | 0.0425 ± 0.067 | -0.015 ± 0.025 | 0.0035 ± 0.005 | 0.003 ± 0.0099 | 0.01 ± 0.013 | -0.011 ± 0.0028 | -0.0055 ± 0.037 | 0.009 ± 0.02 | -0.0005 ± 0.013 | 0.0295 ± 0.018 | -0.0035 ± 0.0078 | 0.0015 ± 0.0035 | -0.005 ± 0.017 | 0.008 ± 0.027 | -0.002 ± 0.0071 | -0.037 ± 0.0028 | 0.017 ± 0.0071 |
| SAg:SRB | -0.0225 ± 0.0035 | -0.02 ± 0.0028 | -0.015 ± 0.021 | -0.007 ± 0.0099 | -0.001 ± 0.0042 | 0.002 ± 0.011 | -0.012 ± 0.0028 | -0.001 ± 0.017 | 0.0035 ± 0.0035 | -0.0025 ± 0.00071 | -0.0055 ± 0.00071 | -0.0045 ± 0.0078 | -0.001 ± 0.0042 | -0.007 ± 0.025 | -0.0065 ± 0.028 | -0.002 ± 0.0057 | -0.0015 ± 0.00071 | -0.016 ± 0.0014 | -0.078 ± 0.0042 |
| BE3C:IL-1alpha | 0.0235 ± 0.016 | -0.008 ± 0.0085 | 0.015 ± 0.065 | 0.0015 ± 0.037 | -0.0225 ± 0.019 | -0.001 ± 0.014 | 0.0045 ± 0.022 | 0.0005 ± 0.018 | 0.007 ± 0.018 | -0.002 ± 0.0071 | 0.002 ± 0.014 | 0.0105 ± 0.00071 | -0.001 ± 0.031 | -0.0065 ± 0.0064 | 0.0025 ± 0.005 | -0.007 ± 0.0085 | 0.007 ± 0.023 | -0.0495 ± 0.0078 | -0.149 ± 0.0092 |
